Source: patent US20120260922A1, “TOPICAL USE OF HYDROXYTYROSOL AND DERIVATIVES FOR THE PREVENTION OF HIV INFECTION” (priority 2009, published 2012)

Legend:
[1] = tested on: recombinant virus NL4.3-delta-env-VSV-Luc (HIV VSV pseudotyped virus); type: cell-based, HIV-1
[2] = tested on: X4-tropic virus (NL.4.3 Ren); experiment: Antiviral activity in PBMC's, X4-tropic virus; type: cell-based, HIV-1; conditions: PBMC's activated with PHA+IL-2; compared with MT-2
Protocol: Similar assays were carried out using peripheral blood mononuclear cells (PBMC's) for healthy donors, prior activation with PHA+IL-2 during 48 hours and maintaining with IL-2 for at least another 48 hours. In this case the number of cells per well was 250.000. In addition, infection with HIV virus with R5-tropism (JR-Ren) was also included in the assays.

[3] = tested on: raltegravir resistant HIV virus (mutation 148); experiment: Antiviral activity against raltegravir resistant viruses; type: cell-based; conditions: viruses resistant to raltegravir
[4] = Vaginal tolerance in rabbits after repeated topical administration; type: in vivo; conditions: rabbit, once daily 7 days, solution 90 and 397 mg/L
Protocol: To determine the safety of hydroxytyrosol, a study of vaginal tolerance in rabbits after repeated once daily administration during 7 days was performed. Hydroxytyrosol was applied as a solution.

HIV-integrase = HIV-integrase (Human immunodeficiency virus type 1 group M subtype B, UniProt P04585); conditions: Huang et al. 2007; cited from earlier work
MT-2 cells = experiment: Viability assay on non-infected MT-2 cells; conditions: 48 hour

SMILES: OCCc1ccc(O)c(O)c1 [Hydroxytyrosol, 4-(2-hydroxyethyl)-1,2-benzenediol]
- inhibition of VSV pseudotyped viruses [1]: inhibits VSV pseudotyped viruses
- IC50 value for infection with X4-tropic [2]: higher than in the assays with cell line MT-2
- activity against integrase resistant viruses [3]: lack of cross resistance
- activity against integrase resistant viruses ([3]; listed as hydroxytyrosol): mantained its activity
- mean irritation value (MIV) [4]: 0.00
- morphological alterations in the vagina [4]: no morphological alterations
- effect on in vitro HIV-integrase activity (HIV-integrase): dose-dependent inhibitory effect
- toxicity / cell viability (MT-2 cells): not due to toxicity
